Measured values published in ChEMBL document CHEMBL1134487, “Design, synthesis, and biological evaluation of analogues of the antitumor agent, 2-(4-[(7-chloro-2-quinoxalinyl)oxy]phenoxy)propionic acid (XK469)” (2001).

Tests used:
Mus musculus [1] = assay: Cytotoxicity against sc transplanted Panc-02 tumors of mouse origin, activity expressed as T/C(%) at the dose of 600 mg/kg, iv; format: functional
Mus musculus [2] = assay: Cytotoxicity against sc transplanted Squam-lung-LC12 tumors of mouse origin, activity expressed as cures at the dose of 400 mg/kg, iv; 5/5 cures; format: functional
Mus musculus [3] = assay: Cytotoxicity against sc transplanted Squam-lung-LC12 tumors of mouse, activity expressed as %body wt loss at the dose of 400 mg/kg, iv; format: functional
Mus musculus [4] = assay: Cytotoxicity against sc transplanted Panc-03 tumors of mouse origin, activity expressed as cures at the dose of 328 mg/kg, po; 4/6 cures; format: functional
Mus musculus [5] = assay: Cytotoxicity against sc transplanted Panc-03 tumors of mouse origin, activity expressed as %T/C at the dose of 328 mg/kg, po; format: functional
Mus musculus [6] = assay: Cytotoxicity against iv transplanted L1210 tumors of mouse origin, activity expressed as %body wt. loss at the dose of 300 mg/kg, iv; format: functional
Mus musculus [7] = assay: In vivo activity tested against C3H mice bearing panc-03 murine tumor measured as log Kill value was based on tumors that grew at 328 mg/kg (po); format: functional, organism-based; set-up: dose 328 mg/kg
Mus musculus [8] = assay: Cytotoxicity against sc transplanted B-16 melanoma tumors of mouse origin, activity expressed as log10 Kill at the dose of 300 mg/kg, iv; format: functional, organism-based; set-up: dose 300 mg/kg
Mus musculus [9] = assay: Cytotoxicity against sc transplanted colon-26 tumors of mouse origin, activity expressed as T/C(%) at the dose of 300 mg/kg, iv; format: functional
Mus musculus [10] = assay: Cytotoxicity against sc transplanted Squam-lung-LC12 tumors of mouse origin, activity expressed as log kill at the dose of 400 mg/kg, iv; All cures; format: functional, organism-based; set-up: dose 400 mg/kg
Mus musculus [11] = assay: Cytotoxicity against iv transplanted AML1498 tumors of mouse origin, activity expressed as %ILS at the dose of 165 mg/kg, iv; format: functional
Mus musculus [12] = assay: Cytotoxicity against sc transplanted colon-38 tumors of mouse origin, activity expressed as %body wt lose at the dose of 546 mg/kg, iv; format: functional
Mus musculus [13] = assay: Cytotoxicity against sc transplanted Mam-17/0 tumors of mouse origin, activity expressed as log10 Kill at the dose of 620 mg/kg, iv; format: functional, organism-based; set-up: dose 620 mg/kg
Mus musculus [14] = assay: Cytotoxicity against iv transplanted AML1498 tumors of mouse origin, activity expressed as cures at the dose of 165 mg/kg, iv; 0/5 cures; format: functional
Mus musculus [15] = assay: Cytotoxicity against sc transplanted colon-51 tumors of mouse origin, activity expressed as log10 Kill at the dose of 980 mg/kg, po; format: functional, organism-based; set-up: dose 980 mg/kg
Mus musculus [16] = assay: Cytotoxicity against iv transplanted L1210 tumors of mouse origin, activity expressed as log10 Kill at the dose of 300 mg/kg, iv; format: functional, organism-based; set-up: dose 300 mg/kg
Mus musculus [17] = assay: Cytotoxicity against transplanted Panc-02 tumors of mouse origin, activity expressed as cures at the dose of 600 mg/kg, iv; 0/6 cures; format: functional
Mus musculus [18] = assay: Cytotoxicity against sc transplanted colon-51 tumors of mouse origin, activity expressed as cures at the dose of 980 mg/kg, po; 1/5 cures; format: functional
Mus musculus [19] = assay: Cytotoxicity against sc transplanted Mam-16/C/Taxol tumors of mouse origin, activity expressed as %body wt. loss at the dose of 480 mg/kg, iv; format: functional
Mus musculus [20] = assay: Cytotoxicity against sc transplanted Mam-16/C/Adr tumors of mouse origin, activity expressed as […] at the dose of 400 mg/kg, iv; 0/5 cures; format: functional
Mus musculus [21] = assay: Cytotoxicity against sc transplanted DMS273 sm cell tumors of mouse and human origin, activity expressed as %body wt. loss at the dose of 175 mg/kg, iv; format: functional
Mus musculus [22] = assay: Cytotoxicity against sc transplanted B-16 melanoma tumors of mouse origin, activity expressed as %body wt. loss at the dose of 300 mg/kg, iv; format: functional
Mus musculus [23] = assay: Cytotoxicity against iv transplanted L1210 tumors of mouse origin, activity expressed as cures at the dose of 300 mg/kg, iv; 0/5 cures; format: functional
Mus musculus [24] = assay: In vivo activity tested against C3H mice bearing mammary adenocarcinoma -17/ADR tumor measured as body weight loss at 620 mg/kg (po); format: functional
Mus musculus [25] = assay: Cytotoxicity against sc transplanted colon-38 tumors of mouse origin, activity expressed as cures at the dose of 546 mg/kg, iv; 3/5 cures; format: functional
Mus musculus [26] = assay: Cytotoxicity against sc transplanted colon-51 tumors of mouse origin, activity expressed as %body wt. loss at the dose of 980 mg/kg, po; format: functional
Mus musculus [27] = assay: Cytotoxicity against sc transplanted B-16 melanoma tumors of mouse origin, activity expressed as T/C(%) at the dose of 300 mg/kg, iv; format: functional
Mus musculus [28] = assay: Cytotoxicity against sc transplanted B-16 melanoma tumors of mouse origin, activity expressed as cures at the dose of 300 mg/kg, iv; 0/5 cures; format: functional
Mus musculus [29] = assay: Cytotoxicity against sc transplanted colon-26 tumors of mouse origin, activity expressed as cures at the dose of 300 mg/kg, iv; 0/5 cures; format: functional

In the case of `CC(Oc1ccc(Oc2cnc3ccc(Cl)cc3n2)cc1)C(=O)O` (centres undefined), the T/C (Mus musculus [1]) is reported as 9%, the Cures (Mus musculus [2]) is reported as 5 and the Body weight loss (Mus musculus [3]) is reported as -3%. It also gave a Cures (Mus musculus [4]) of 4, a T/C (Mus musculus [5]) of 0% and a Body weight loss (Mus musculus [6]) of -2%. For the same compound, the Log kill (Mus musculus [7]) was 2.1, the Log kill (Mus musculus [8]) was 2.6 and the T/C (Mus musculus [9]) was 14%. The Log kill (Mus musculus [10]) was “All cures”, the ILS at 165 mg/kg (Mus musculus [11]) was 30% and the Body weight loss (Mus musculus [12]) was -3.5%. For the same compound, the Log kill (Mus musculus [13]) was 3.4, the Cures (Mus musculus [14]) was 0 and the Log kill (Mus musculus [15]) was 2.7. For the same compound, the Log kill (Mus musculus [16]) was 6.4, the Cures (Mus musculus [17]) was 0 and the Cures (Mus musculus [18]) was 1. The Body weight loss (Mus musculus [19]) was -11%, the Cures (Mus musculus [20]) was 0 and the Body weight loss (Mus musculus [21]) was -8%. For the same compound, the Body weight loss (Mus musculus [22]) was -11%, the Cures (Mus musculus [23]) was 0 and the Body weight loss (Mus musculus [24]) was -4%. The Cures (Mus musculus [25]) was 3, the Body weight loss (Mus musculus [26]) was -5% and the T/C (Mus musculus [27]) was 4%. For the same compound, the Cures (Mus musculus [28]) was 0 and the Cures (Mus musculus [29]) was 0.
